This passage reports IC50 results from patent publication US11987588B2, “Modulators of the beta-3 adrenergic receptor useful for the treatment or prevention of heart failure and disorders related thereto” (Arena Pharmaceuticals, Inc., priority 2017, dated 2024).

Chain of Beta-3 Adrenergic Receptor (P13945 whole entry, species assumed): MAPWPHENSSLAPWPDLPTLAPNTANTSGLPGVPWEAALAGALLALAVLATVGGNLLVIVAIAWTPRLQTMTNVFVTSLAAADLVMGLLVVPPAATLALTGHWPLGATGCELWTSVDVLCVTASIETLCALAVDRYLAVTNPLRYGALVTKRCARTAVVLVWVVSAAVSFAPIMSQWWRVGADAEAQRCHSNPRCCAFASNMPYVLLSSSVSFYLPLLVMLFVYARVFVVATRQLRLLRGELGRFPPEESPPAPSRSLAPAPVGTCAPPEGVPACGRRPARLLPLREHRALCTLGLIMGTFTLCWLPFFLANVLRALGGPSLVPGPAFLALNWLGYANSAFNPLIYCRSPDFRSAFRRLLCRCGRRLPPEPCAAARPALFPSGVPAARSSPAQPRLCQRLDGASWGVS

This test concerns the target Beta-3 Adrenergic Receptor (Homo sapiens (Human), UniProt P13945). Description: Homogeneous Time-Resolved Fluorescence (HTRF) cAMP antagonist assay, IC50 determination. The test is classed as cell-based. To be noted: CHO-K1 cells stably expressing recombinant receptor, isoproterenol at EC90. The gist of the method:
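CHO-K1 cells stably expressing receptor, 1500 cells/well, preincubated briefly with 10-point 5-fold compound series (top final typically 10 or 100 μM) in PBS with 1 mM IBMX, then challenged with isoproterenol at EC90 for 1 h at room temperature. cAMP read by HTRF against on-plate standard curve; IC50 from dose-response.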
On the technique in general: In TR-FRET formats the signal depends on donor and acceptor labels being close together.
Usually IC50 stands for the midpoint of a concentration-inhibition curve. On to `CNS(=O)(=O)c1cccc(OC[C@@H](O)CN[C@H]2COC3(CCN(S(=O)(=O)c4cnc5c(c4)N(C)C[C@@H](C)O5)CC3)C2)c1` [Compound 468, 3-((S)-3-((R)-8-((R)-1,3-dimethyl-2,3-dihydro-1H-pyrido[2,3-b][1,4]oxazin-7-ylsulfonyl)-1-oxa-8-azaspiro[4.5]decan-3-ylamino)-2-hydroxypropoxy)-N-methylbenzenesulfonamide], for which the IC50 worked out at 31.1 nM. With `CNS(=O)(=O)c1cccc(OC[C@@H](O)CNC2COC3(CCN(S(=O)(=O)CCc4ccncc4)CC3)C2)c1` (stereo partly drawn) [Compound 378, 3-((2S)-2-hydroxy-3-(8-(2-(pyridin-4-yl)ethylsulfonyl)-1-oxa-8-azaspiro[4.5]decan-3-ylamino)propoxy)-N-methylbenzenesulfonamide], the IC50 was found to be 131 nM. For the molecule `CNS(=O)(=O)c1cccc(OC[C@@H](O)CNC2COC3(CCN(S(=O)(=O)c4cc(-c5ccc(CN)cc5)ccc4Cl)CC3)C2)c1` (stereo partly drawn) [Compound 377, 3-((2S)-3-(8-(4′-(aminomethyl)-4-chlorobiphenyl-3-ylsulfonyl)-1-oxa-8-azaspiro[4.5]decan-3-ylamino)-2-hydroxypropoxy)-N-methylbenzenesulfonamide], the IC50 came out at 18.9 nM.

Regarding `O=S(=O)(NCC(F)F)c1cccc(OC[C@@H](O)CNC2COC3(CCN(S(=O)(=O)c4ccc5ccccc5c4)CC3)C2)c1` (stereo partly drawn) [Compound 9, N-(2,2-difluoroethyl)-3-((2S)-2-hydroxy-3-(8-(naphthalen-2-ylsulfonyl)-1-oxa-8-azaspiro[4.5]decan-3-ylamino)propoxy)benzenesulfonamide], the IC50 worked out at 107 nM. The figure for `CNS(=O)(=O)c1cccc(OC[C@@H](O)CNC2COC3(CCN(S(=O)(=O)c4cc(OC)cnc4C)CC3)C2)c1` (stereo partly drawn) [Compound 397, 3-((2S)-2-hydroxy-3-(8-(5-methoxy-2-methylpyridin-3-ylsulfonyl)-1-oxa-8-azaspiro[4.5]decan-3-ylamino)propoxy)-N-methylbenzenesulfonamide] is 115 nM.

Take `CNS(=O)(=O)c1cccc(OC[C@@H](O)CNC2COC3(CCN(S(=O)(=O)c4ccccc4F)CC3)C2)c1` (stereo partly drawn) [Compound 34, 3-((2S)-3-(8-(2-fluorophenylsulfonyl)-1-oxa-8-azaspiro[4.5]decan-3-ylamino)-2-hydroxypropoxy)-N-methylbenzenesulfonamide]: the IC50 amounted to 24.2 nM.

Consider `CNS(=O)(=O)c1cccc(OC[C@@H](O)CNC2COC3(CCN(S(=O)(=O)c4cc(C)ccc4C)CC3)C2)c1` (stereo partly drawn) [Compound 154, 3-((2S)-3-(8-(2,5-dimethylphenylsulfonyl)-1-oxa-8-azaspiro[4.5]decan-3-ylamino)-2-hydroxypropoxy)-N-methylbenzenesulfonamide], for which the IC50 was determined as 34.4 nM. Take `CNS(=O)(=O)c1cccc(OC[C@@H](O)CN[C@H]2COC3(CCN(S(=O)(=O)c4cnc5c(c4)c(Cl)cn5C)CC3)C2)c1` [Compound 513, 3-((S)-3-((R)-8-(3-chloro-1-methyl-1H-pyrrolo[2,3-b]pyridin-5-ylsulfonyl)-1-oxa-8-azaspiro[4.5]decan-3-ylamino)-2-hydroxypropoxy)-N-methylbenzenesulfonamide]: the IC50 came out at 6.36 nM. As for `CNS(=O)(=O)c1cccc(OC[C@@H](O)CNC2COC3(CCN(S(=O)(=O)c4cccnc4N4CCOCC4)CC3)C2)c1` (stereo partly drawn) [Compound 442, 3-((2S)-2-hydroxy-3-(8-(2-morpholinopyridin-3-ylsulfonyl)-1-oxa-8-azaspiro[4.5]decan-3-ylamino)propoxy)-N-methylbenzenesulfonamide], the IC50 was 367 nM. Consider `CNS(=O)(=O)c1cccc(OC[C@@H](O)CN[C@H]2COC3(CCN(S(=O)(=O)c4cnc5ccn(C)c5c4)CC3)C2)c1` [Compound 526, 3-((S)-2-hydroxy-3-((R)-8-(1-methyl-1H-pyrrolo[3,2-b]pyridin-6-ylsulfonyl)-1-oxa-8-azaspiro[4.5]decan-3-ylamino)propoxy)-N-methylbenzenesulfonamide], for which the IC50 was determined as 6.97 nM. The result for `CNS(=O)(=O)c1cccc(OC[C@@H](O)CN[C@H]2COC3(CCN(S(=O)(=O)c4ccc(-c5ccc(CN(C)C)cc5)cc4)CC3)C2)c1` [Compound 405, 3-((S)-3-((R)-8-(4′-((dimethylamino)methyl)biphenyl-4-ylsulfonyl)-1-oxa-8-azaspiro[4.5]decan-3-ylamino)-2-hydroxypropoxy)-N-methylbenzenesulfonamide] reads 51.8 nM; that for `CNS(=O)(=O)c1cccc(OC[C@@H](O)CNC2COC3(CCN(S(=O)(=O)c4cccc(-c5ccc(CN6CCSC6)cc5)c4)CC3)C2)c1` (stereo partly drawn) [Compound 346, 3-((2S)-2-hydroxy-3-(8-(4′-(thiazolidin-3-ylmethyl)biphenyl-3-ylsulfonyl)-1-oxa-8-azaspiro[4.5]decan-3-ylamino)propoxy)-N-methylbenzenesulfonamide], 126 nM; that for `CCCCCNS(=O)(=O)c1cccc(OC[C@@H](O)CNC2COC3(CCN(S(=O)(=O)c4ccc5ccccc5c4)CC3)C2)c1` (stereo partly drawn) [Compound 3, 3-((2S)-2-hydroxy-3-(8-(naphthalen-2-ylsulfonyl)-1-oxa-8-azaspiro[4.5]decan-3-ylamino)propoxy)-N-pentylbenzenesulfonamide], 133 nM. The result for `CNS(=O)(=O)c1cccc(OC[C@@H](O)CNC2COC3(CCN(S(=O)(=O)c4ccc5cn[nH]c5c4)CC3)C2)c1` (stereo partly drawn) [Compound 328, 3-((2S)-3-(8-(1H-indazol-6-ylsulfonyl)-1-oxa-8-azaspiro[4.5]decan-3-ylamino)-2-hydroxypropoxy)-N-methylbenzenesulfonamide] reads 37 nM. On to `CNS(=O)(=O)c1cccc(OC[C@@H](O)CN[C@@H]2COC3(CCN(S(=O)(=O)c4cccc(-c5ccc(CNCC(C)C)cc5)c4)CC3)C2)c1` [Compound 360, 3-((S)-2-hydroxy-3-((S)-8-(4′-((isobutylamino)methyl)biphenyl-3-ylsulfonyl)-1-oxa-8-azaspiro[4.5]decan-3-ylamino)propoxy)-N-methylbenzenesulfonamide], for which the IC50 was found to be 20.5 nM. For the molecule `CNS(=O)(=O)c1cccc(OC[C@@H](O)CN[C@H]2COC3(CCN(S(=O)(=O)c4cncc(-c5ccc(CN)cc5)c4)CC3)C2)c1` [Compound 375], the IC50 amounted to 25.4 nM.

With `CNS(=O)(=O)c1cccc(OC[C@@H](O)CNC2COC3(CCN(S(=O)(=O)c4ccccc4)CC3)C2)c1` (stereo partly drawn) [Compound 14, 3-((2S)-2-hydroxy-3-(8-(phenylsulfonyl)-1-oxa-8-azaspiro[4.5]decan-3-ylamino)propoxy)-N-methylbenzenesulfonamide], the IC50 was 30.1 nM. Regarding `CNS(=O)(=O)c1cccc(OC[C@@H](O)CNC2COC3(CCN(S(=O)(=O)c4cccc(-c5cncnc5)c4)CC3)C2)c1` (stereo partly drawn) [Compound 104, 3-((2S)-2-hydroxy-3-(8-(3-(pyrimidin-5-yl)phenylsulfonyl)-1-oxa-8-azaspiro[4.5]decan-3-ylamino)propoxy)-N-methylbenzenesulfonamide], the IC50 turned out to be 17.3 nM. Regarding `CNS(=O)(=O)c1cccc(OC[C@@H](O)CNC2COC3(CCN(S(=O)(=O)c4ccccc4OC(F)(F)F)CC3)C2)c1` (stereo partly drawn) [Compound 171, 3-((2S)-2-hydroxy-3-(8-(2-(trifluoromethoxy)phenylsulfonyl)-1-oxa-8-azaspiro[4.5]decan-3-ylamino)propoxy)-N-methylbenzenesulfonamide], the IC50 amounted to 30.7 nM.
